Several values for one entry are separate records, joined by “and”; a condition that tells them apart may be missing. Equal entries are not always repeated. Where two headings read alike, the source gives them in different places.
Experiments:
[1] = molecular target: T1, CB2 (Homo sapiens, UniProt P34972); test: fluorescence-based agonist assay using genetically modified yeast; assay type: cell-based; conditions: read-out: CB2 pEC50 (converted)
T1 construct: expressed in transfected cells

[2] = tested on: primary human cell culture platforms; test: BioMAP Diversity Plus profiling; assay type: cell-based
[3] = tested on: human primary keratinocytes; test: keratinocyte viability; assay type: cell-based; conditions: 48 h, two days
From the text: Points represent percent maximum expression of protein compared to Th17 from six combined donors; 3 biological replicates per treatment. Error bars represent standard error of mean. […] Data are mean±standard error from 3 to 9 experimental data points. […] Error bars represent mean ±standard error of 10-15 biological replicates.

[4] = oxygen radical absorbance capacity (ORAC) test; assay type: biochemical; conditions: Trolox Equivalent Values
[5] = plasma protein binding by Rapid Equilibrium Dialysis, rat; assay type: in vitro ADME; conditions: rat, plasma
From the text: (§1) The blood-to-plasma ratios were similar across species (1.22-1.36, Table 9).

[6] = tested on: Rat Plasma Proteins; test: as above; assay type: in vitro ADME
From the text: as §1

[7] = blood-to-plasma ratio and blood cell association, minipig; assay type: in vitro ADME
[8] = blood-to-plasma ratio and blood cell association, human; assay type: in vitro ADME
[9] = metabolic stability in liver microsomes, mouse; assay type: in vitro ADME
[10] = metabolic stability in liver microsomes, minipig; assay type: in vitro ADME
[11] = metabolic stability in liver microsomes, rabbit; assay type: in vitro ADME
[12] = metabolic stability in hepatocytes, minipig; assay type: in vitro ADME
[13] = pharmacokinetics after a single intravenous dose, rat; assay type: in vivo; conditions: plasma, 1 mg/kg intravenous
From the text: (§2) Bioavailability was 46.5% and 41.0% for 30% Captisol and 30% Cavitron, respectively. 30% Captisol formulation was selected for the 7-day subcutaneous toxicity study in rat.

[14] = bioavailability after a single oral dose, minipig; assay type: in vivo; conditions: plasma, single 5 mg/kg oral dose, DMSO: Kolliphore HS15: hydroxypropyl-β-cyclodextrin (10:10:80)
From the text: as §2

[15] = estimation of human plasma concentration following topical administration; conditions: for Estimated AUC24 h / Estimated Css: 70 kg
Experimental: The plasma clearance (CLhuman) was estimated from the in vitro and preclinical pharmacokinetic studies.
An estimated skin flux prediction was conducted, assuming a 2-hour lag time and receiving fluid levels obtained every two hours at the LLOQ level for 16 hours, leading to a calculated flux of 0.048 ng/cm^2/h.
Healthy skin is an effective protective barrier to most xenobiotics; therefore the relevance of a flux value derived from the ex vivo skin penetration assay, which uses healthy human skin from abdominoplasty surgeries, may not translate to what is observed following application onto unhealthy skin. […] Calculation of human systemic exposure with a 100-fold increase in flux has also been performed to account for the worst case estimation. A 10% body surface area (1800 cm^2) in human was used for this estimation. Therefore, for the purpose of safety margin estimation and considering the conditions explained herein, the estimated Css,human is 0.34 ng/mL with the corresponding AUCss, 24 h is 8.2 ng*h/mL. In clinical practice, topical treatment for atopical dermatitis can be up to 50% BSA (9000 cm2) and therefore corresponding estimated Css,human and AUCss, 24 h with 10-fold increase in flux is 0.17 ng/mL and 4.1 ng*h/mL.

[16] = read-out: Blood-to-plasma Ratio Mean (% CV)
[17] = read-out: Blood-to-plasma Ratio Replicate
[18] = flux 0.48 (10-fold increase), dose area 9000 cm^2, clearance 6 ml/min/kg
[19] = flux 4.8 (100-fold increase), dose area 1800 cm^2, clearance 6 ml/min/kg

T1 sequence (P34972 whole entry, species assumed): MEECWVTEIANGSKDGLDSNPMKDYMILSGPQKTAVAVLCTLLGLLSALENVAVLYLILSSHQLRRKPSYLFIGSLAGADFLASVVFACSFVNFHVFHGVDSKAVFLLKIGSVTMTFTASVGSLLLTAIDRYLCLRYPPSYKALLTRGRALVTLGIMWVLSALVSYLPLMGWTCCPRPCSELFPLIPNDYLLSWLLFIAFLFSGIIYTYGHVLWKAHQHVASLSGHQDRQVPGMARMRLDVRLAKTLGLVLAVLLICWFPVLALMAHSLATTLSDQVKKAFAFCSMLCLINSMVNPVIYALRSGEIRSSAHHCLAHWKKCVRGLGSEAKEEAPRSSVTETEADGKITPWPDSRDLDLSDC

## CC(C)c1c(O)cc(-c2cc3ccccc3cn2)cc1O
[1]
  EC50: 0.2 µM
[2]; 1 μM, 330 nM, 110 nM and 37 nM
  effect on B cell proliferation: anti-proliferative to B cells
  increased biomarkers: increased IL8, IL1α, sPGE2, ICAM-1, and E-selectin
  reduced biomarkers (M-CSF, sIL-17A, sIL-2, sIL-6, sIL-10, Eot3, sTNFα, MCP-1, VCAM-1, MIP-1): reductions in various cytokines/chemokines
[2]; profiles overlaid
  sIL-17 in BioMAP: observed reduction in sIL-17
[3]
  IC50: 12.4 µM
[4]
  Hydroxyl-radical: 759 TEV
  Peroxyl radical-hydro: 3267 TEV
  Peroxyl radical-lipo: 1397 TEV
  Peroxynitrite: 100 TEV
  Singlet oxygen: 2914 TEV
  Total ORAC value: 8437 TEV
[5]; read-out: % Unbound Mean (% CV)
  fraction unbound at 4 h, 2 μM: 0.0306
[5]; read-out: Mean % Bound (converted)
  fraction unbound at 4 h, 2 μM: 0.031
[6]
  recovery at 4 h, 2 μM: 104%
[6]; 2 μM
  % Unbound Replicate: 1.37% and 1.44% and 6.36%
  Mean % Stability at 4 hrs: 94.4%
[7]; 1 μM
  % Blood Cell Association Mean (% CV): 55.6 (2.02) %
  % Blood Cell Association Replicate: 55.3% and 56.8% and 54.5%
  Blood-to-plasma Ratio Replicate: 1.25 and 1.19
  Mean % Blood Stability: 105%
[7]; [16]
  blood plasma ratio at 1 μM: 1.22
[7]; [17]
  blood plasma ratio at 1 μM: 1.21
[8]; 1 μM
  % Blood Cell Association Mean (% CV): 55.0 (2.39) %
  % Blood Cell Association Replicate: 53.9% and 56.4% and 54.6%
  Blood-to-plasma Ratio Replicate: 1.29 and 1.23
  Mean % Blood Stability: 107%
[8]; [16]
  blood plasma ratio at 1 μM: 1.24
[8]; [17]
  blood plasma ratio at 1 μM: 1.21
[9]; mouse liver microsomes, 0.5 μM
  CLint, mic: 23.4 mL/min/g liver
[9]; mouse liver microsomes, 0.5 μM, read-out: Scaled CLint, mic
  CLint scaled at 0.5 μM: 1190 mL/min/kg
[9]; mouse, microsomes
  half-life at 0.5 μM: 2.84 min
[10]; minipig liver microsomes, 0.5 μM
  CLint, mic: 3.01 mL/min/g liver
[10]; minipig liver microsomes, 0.5 μM, read-out: Scaled CLint, mic
  CLint scaled at 0.5 μM: 50.3 mL/min/kg
[10]; minipig, microsomes
  half-life at 0.5 μM: 24.2 min
[11]; rabbit liver microsomes, 0.5 μM
  CLint, mic: 11.9 mL/min/g liver
[11]; rabbit liver microsomes, 0.5 μM, read-out: Scaled CLint, mic
  CLint scaled at 0.5 μM: 367 mL/min/kg
[11]; rabbit, microsomes
  half-life at 0.5 μM: 6.1 min
[12]; minipig
  in vitro-to-in vivo extrapolation (IVIVE) ratio: 0.27
[12]; minipig hepatocytes, 0.5 μM
  CLint, hep: 6.27 mL/min/g liver
  half-life at 0.5 μM: 26.5 min
[12]; minipig hepatocytes, 0.5 μM, read-out: Scaled CLint, hep
  CLint scaled at 0.5 μM: 105 mL/min/kg
[13]; mean n = 3
  AUC(0-inf): 95.7 ng·h/mL
  half-life: 41.4 min
[13]; mean n = 3, read-out: CLp
  clearance: 175 mL/min/kg
[13]; mean n = 3, read-out: Vss
  Vd: 6 L/kg
[14]
  bioavailability: 0.1%
[15]; allometric scaling with plasma protein binding correction
  lowest predicted human clearance: 6 mL/min/kg
[15]; assuming 2-hour lag time and receiving fluid levels at the LLOQ for 16 hours
  Topical Skin Flux (calculated): 0.048 ng/cm^2/h
[15]; [18]
  Estimated AUC24 h: 4.1 ng·h/mL
  Estimated Css: 0.17 ng/mL
[15]; [19]
  Estimated AUC24 h: 8.2 ng·h/mL
  Estimated Css: 0.34 ng/mL

Reference: patent US20220017468A1, “ISOQUINOLINE COMPOUNDS AND THEIR USE IN TREATING AhR IMBALANCE” (Dermavant Sciences GmbH, priority 2020, published 2022)
